“And” between values parts separate entries of the source, which are not always exact repeats. Equal values may be shown once. Inconclusive results and toxic doses are left out. No stated cut-off is given here; in the data, active means T/C of 150% or more; inactive means T/C below 125%.
Test system: L1210 leukemia ip in BDF1 mice, survival T/C
Experiment: NCI In Vivo Anticancer Drug Screen. Data for tumor model L1210 Leukemia (intraperitoneal) in B6D2F1 (BDF1) mice
Details: endpoint: mean survival time, higher = longer survival
Method in brief: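 Value reflects the ratio of survival in compound-treated mice to survival in vehicle-treated controls, with both groups carrying the same transplanted tumor.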

[1] = dose: 50.0 mg/kg/injection, schedule: Q01DX009 (ip), vehicle: saline
[2] = dose: 100.0 mg/kg/injection, schedule: Q01DX009 (ip), vehicle: saline
[3] = dose: 200.0 mg/kg/injection, schedule: Q01DX009 (ip), vehicle: saline
[4] = dose: 100.0 mg/kg/injection, schedule: Q01DX001 (ip), vehicle: saline
[5] = dose: 200.0 mg/kg/injection, schedule: Q01DX001 (ip), vehicle: saline
[6] = dose: 100.0 mg/kg/injection, schedule: Q01DX001 (ip), vehicle: carboxymethylcellulose (CMC)
[7] = dose: 150.0 mg/kg/injection, schedule: Q01DX001 (ip), vehicle: other
[8] = dose: 200.0 mg/kg/injection, schedule: Q01DX001 (ip), vehicle: carboxymethylcellulose (CMC)
[9] = dose: 400.0 mg/kg/injection, schedule: Q01DX001 (ip), vehicle: carboxymethylcellulose (CMC)
[10] = dose: 100.0 mg/kg/injection, schedule: Q04DX003 (ip), vehicle: Klucel (hydroxypropylcellulose) (HPC)
[11] = dose: 200.0 mg/kg/injection, schedule: Q04DX003 (ip), vehicle: Klucel (hydroxypropylcellulose) (HPC)
[12] = dose: 400.0 mg/kg/injection, schedule: Q04DX003 (ip), vehicle: Klucel (hydroxypropylcellulose) (HPC)
[13] = dose: 100.0 mg/kg/injection, schedule: Q04DX003 (ip), vehicle: saline with Tween-80
[14] = dose: 200.0 mg/kg/injection, schedule: Q04DX003 (ip), vehicle: saline with Tween-80
[15] = dose: 400.0 mg/kg/injection, schedule: Q04DX003 (ip), vehicle: saline with Tween-80
[16] = dose: 400.0 mg/kg/injection, schedule: Q01DX001 (ip), vehicle: saline

Measured: T/C

COc1cccc(N(CCO)CCO)c1OC
inactive: dose: 3.75 mg/kg/injection, schedule: Q01DX Z (ip), vehicle: saline 93 % of control | dose: 7.5 mg/kg/injection, schedule: Q01DX Z (ip), vehicle: saline 93 % of control | dose: 15.5 mg/kg/injection, schedule: Q01DX Z (ip), vehicle: saline 97 % of control | dose: 31.0 mg/kg/injection, schedule: Q01DX Z (ip), vehicle: saline 97 % of control | dose: 62.5 mg/kg/injection, schedule: Q01DX Z (ip), vehicle: saline 96 % of control | dose: 125.0 mg/kg/injection, schedule: Q01DX Z (ip), vehicle: saline 101 % of control | dose: 250.0 mg/kg/injection, schedule: Q01DX Z (ip), vehicle: saline 97 % of control | dose: 500.0 mg/kg/injection, schedule: Q01DX Z (ip), vehicle: saline 101 % of control

CN1C(=O)N(C)C(=O)C(Cc2ccccc2)(Cc2ccccc2)C1=O
inactive: dose: 10.0 mg/kg/injection, schedule: Q01DX001 (ip), vehicle: saline 109 % of control | dose: 20.0 mg/kg/injection, schedule: Q01DX001 (ip), vehicle: saline 105 % of control

Cn1ncc(=O)n(C)c1=O
inactive: [1] 97 % of control | [2] 97 % of control | [3] 93 % of control

COc1cc(Cc2nccc3cc(OC)c(OC)cc23)c([N+](=O)[O-])cc1OC
inactive: [4] 102 % of control | dose: 100.0 mg/kg/injection, schedule: Q04DX003 (ip), vehicle: saline sonified 106 % of control | [5] 96 % of control | dose: 200.0 mg/kg/injection, schedule: Q04DX003 (ip), vehicle: saline sonified 89 % of control | dose: 300.0 mg/kg/injection, schedule: Q01DX001 (ip), vehicle: saline 96 % of control | dose: 400.0 mg/kg/injection, schedule: Q04DX003 (ip), vehicle: saline sonified 92 % of control

CSC1c2ccccc2-c2ccccc21
inactive: dose: 44.0 mg/kg/injection, schedule: Q01DX001 (ip), vehicle: carboxymethylcellulose (CMC) 100 % of control | dose: 44.0 mg/kg/injection, schedule: Q01DX001 (ip), vehicle: other 105 % of control | dose: 66.0 mg/kg/injection, schedule: Q01DX001 (ip), vehicle: carboxymethylcellulose (CMC) 94 % of control and 105 % of control | dose: 66.0 mg/kg/injection, schedule: Q01DX001 (ip), vehicle: other 97 % of control | [6] 106 % of control and 111 % of control | dose: 100.0 mg/kg/injection, schedule: Q01DX001 (ip), vehicle: other 100 % of control | dose: 150.0 mg/kg/injection, schedule: Q01DX001 (ip), vehicle: carboxymethylcellulose (CMC) 95 % of control and 100 % of control | [7] 97 % of control | [8] 104 % of control | [9] 107 % of control

CCCCCCCCCCOc1ccc(C=O)c(OC)c1
inactive: [10] 98 % of control | [11] 93 % of control | [12] 91 % of control

CCCCCCCCCCCCCCCCSc1ccc(S(=O)(=O)N(C)C)cc1C(=O)O
inactive: [13] 98 % of control | [14] 91 % of control | [15] 89 % of control

CCCC(/C=N\NC(=O)c1ccc[n+](C)c1)CC (stereo not given)
inactive: [1] 103 % of control | [2] 103 % of control | [3] 100 % of control

CCCCC#CC(=O)OC
inactive: dose: 75.0 mg/kg/injection, schedule: Q01DX001 (ip), vehicle: other 106 % of control | [7] 97 % of control | dose: 300.0 mg/kg/injection, schedule: Q01DX001 (ip), vehicle: other 101 % of control

CCOC(=O)/C=C(\COC)c1ccccc1
inactive: [4] 104 % of control | [5] 104 % of control | [16] 104 % of control

C/C(=N\OC(=O)c1ccc([N+](=O)[O-])cc1)C(C)(C)C
inactive: dose: 100.0 mg/kg/injection, schedule: Q04DX002 (ip), vehicle: Klucel (hydroxypropylcellulose) (HPC) 88 % of control | dose: 200.0 mg/kg/injection, schedule: Q04DX002 (ip), vehicle: Klucel (hydroxypropylcellulose) (HPC) 100 % of control | dose: 400.0 mg/kg/injection, schedule: Q04DX002 (ip), vehicle: Klucel (hydroxypropylcellulose) (HPC) 96 % of control

NCC(=O)O
inactive: [6] 100 % of control | [8] 92 % of control | [9] 100 % of control

CCOP(=O)(Nc1cccc(Cl)c1)OCC
inactive: dose: 50.0 mg/kg/injection, schedule: Q01DX001 (ip), vehicle: carboxymethylcellulose (CMC) 94 % of control | [6] 94 % of control | [8] 105 % of control | [9] 103 % of control

CC1(C)N=C(N)N=C(N)N1c1ccc(CCC(=O)CCl)cc1
inactive: dose: 25.0 mg/kg/injection, schedule: Q01DX001 (ip), vehicle: saline with Tween-80 92 % of control | dose: 50.0 mg/kg/injection, schedule: Q01DX001 (ip), vehicle: saline with Tween-80 95 % of control | dose: 100.0 mg/kg/injection, schedule: Q01DX001 (ip), vehicle: saline with Tween-80 95 % of control

NC(=O)c1cc(NCCO)c([N+](=O)[O-])cc1[N+](=O)[O-]
inactive: dose: 100.0 mg/kg/injection, schedule: Q01DX001 (ip), vehicle: Klucel (hydroxypropylcellulose) (HPC) 104 % of control | dose: 200.0 mg/kg/injection, schedule: Q01DX001 (ip), vehicle: Klucel (hydroxypropylcellulose) (HPC) 100 % of control | dose: 400.0 mg/kg/injection, schedule: Q01DX001 (ip), vehicle: Klucel (hydroxypropylcellulose) (HPC) 96 % of control

NC(N)=NCCCC(N)C(=O)NCCCCCCNCCCCCCNC(=O)C(N)CCCN=C(N)N (stereo not given)
inactive: dose: 1.25 mg/kg/injection, schedule: Q01DX Z (ip), vehicle: saline 96 % of control | dose: 2.5 mg/kg/injection, schedule: Q01DX Z (ip), vehicle: saline 94 % of control | dose: 5.0 mg/kg/injection, schedule: Q01DX Z (ip), vehicle: saline 98 % of control | dose: 10.0 mg/kg/injection, schedule: Q01DX Z (ip), vehicle: saline 96 % of control

O=C(NCCCl)Nc1ccccc1-c1ccccc1
inactive: [10] 101 % of control | [11] 95 % of control | [12] 115 % of control

Cc1nccc2c(C)c3sc4ccccc4c3cc12
inactive: dose: 124.0 mg/kg/injection, schedule: Q01DX001 (ip), vehicle: alcohol 96 % of control | dose: 186.0 mg/kg/injection, schedule: Q01DX001 (ip), vehicle: alcohol 110 % of control | dose: 280.0 mg/kg/injection, schedule: Q01DX001 (ip), vehicle: alcohol 117 % of control | dose: 320.0 mg/kg/injection, schedule: Q01DX001 (ip), vehicle: alcohol 109 % of control

Cc1cccc(N=Cc2ccc(Cl)cc2Cl)c1C
inactive: dose: 100.0 mg/kg/injection, schedule: Q01DX009 (ip), vehicle: alcohol 95 % of control | dose: 100.0 mg/kg/injection, schedule: Q04DX002 (ip), vehicle: saline with Tween-80 106 % of control | dose: 200.0 mg/kg/injection, schedule: Q01DX009 (ip), vehicle: alcohol 87 % of control | dose: 200.0 mg/kg/injection, schedule: Q04DX002 (ip), vehicle: saline with Tween-80 102 % of control | dose: 400.0 mg/kg/injection, schedule: Q04DX002 (ip), vehicle: saline with Tween-80 98 % of control

COC(=O)c1cc(C)cc(Oc2ccccc2[N+](=O)[O-])c1C
inactive: [4] 96 % of control | [5] 98 % of control | [16] 98 % of control

COc1ccc2c(c1)CCCN2CCC#N
inactive: dose: 50.0 mg/kg/injection, schedule: Q04DX003 (ip), vehicle: other 106 % of control | dose: 100.0 mg/kg/injection, schedule: Q04DX003 (ip), vehicle: other 92 % of control | dose: 200.0 mg/kg/injection, schedule: Q04DX003 (ip), vehicle: other 108 % of control | dose: 400.0 mg/kg/injection, schedule: Q04DX003 (ip), vehicle: other 99 % of control

CC(=O)OCC1OC(N2C(=O)/C(=C/c3ccncc3)SC2=S)C(OC(C)=O)C(OC(C)=O)C1OC(C)=O (stereo not given)
inactive: dose: 25.0 mg/kg/injection, schedule: Q01DX005 (ip), vehicle: other 97 % of control | dose: 50.0 mg/kg/injection, schedule: Q01DX005 (ip), vehicle: other 94 % of control | dose: 100.0 mg/kg/injection, schedule: Q01DX005 (ip), vehicle: other 97 % of control | dose: 400.0 mg/kg/injection, schedule: Q01DX005 (ip), vehicle: other 86 % of control

OC(CC(O)(C(F)(F)F)C(F)(F)F)c1cccs1 (stereo not given)
inactive: [13] 106 % of control | [14] 100 % of control | [15] 101 % of control
